In the assay the target is PIK3CA (human) (UniProt P42336). The assay is described as follows: Inhibition of PIK3CA Kinase Activity.

This note sets out measurements from the Kinase Knowledgebase extract (Sharma et al. 2016).

Sequence of PIK3CA (human) (P42336 whole entry, looked up): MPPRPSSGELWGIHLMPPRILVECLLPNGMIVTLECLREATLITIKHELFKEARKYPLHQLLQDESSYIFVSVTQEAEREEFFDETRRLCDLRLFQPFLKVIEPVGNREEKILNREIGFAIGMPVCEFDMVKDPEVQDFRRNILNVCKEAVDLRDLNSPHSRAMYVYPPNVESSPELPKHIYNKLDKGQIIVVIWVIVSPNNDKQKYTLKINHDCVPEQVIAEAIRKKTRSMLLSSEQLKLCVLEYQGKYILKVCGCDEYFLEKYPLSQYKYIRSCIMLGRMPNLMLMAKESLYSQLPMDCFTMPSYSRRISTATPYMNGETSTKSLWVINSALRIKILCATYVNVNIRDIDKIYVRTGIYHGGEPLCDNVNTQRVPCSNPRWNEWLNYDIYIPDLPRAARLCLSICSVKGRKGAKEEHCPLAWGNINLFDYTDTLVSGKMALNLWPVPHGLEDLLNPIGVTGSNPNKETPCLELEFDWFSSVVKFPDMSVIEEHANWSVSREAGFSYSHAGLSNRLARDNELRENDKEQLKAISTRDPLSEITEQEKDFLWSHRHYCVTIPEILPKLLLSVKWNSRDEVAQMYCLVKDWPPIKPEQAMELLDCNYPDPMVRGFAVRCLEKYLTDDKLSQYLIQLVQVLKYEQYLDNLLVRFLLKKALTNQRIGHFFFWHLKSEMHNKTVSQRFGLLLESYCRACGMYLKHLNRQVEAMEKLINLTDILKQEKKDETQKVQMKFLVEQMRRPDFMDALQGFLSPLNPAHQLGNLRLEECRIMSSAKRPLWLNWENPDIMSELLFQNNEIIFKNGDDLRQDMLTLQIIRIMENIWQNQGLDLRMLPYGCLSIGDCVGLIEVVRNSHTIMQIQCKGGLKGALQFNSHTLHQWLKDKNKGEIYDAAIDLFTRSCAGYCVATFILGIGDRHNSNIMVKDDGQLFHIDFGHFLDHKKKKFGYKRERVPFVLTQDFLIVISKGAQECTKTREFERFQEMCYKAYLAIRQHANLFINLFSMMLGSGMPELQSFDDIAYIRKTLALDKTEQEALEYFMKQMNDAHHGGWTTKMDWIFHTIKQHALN

A word on the IC50: it is the concentration that inhibits the measured activity by half. A high value points to weaker potency. For the compound `Nc1ncc(-c2ccc3nc(NC(=O)[C@H]4CCC(=O)O4)cn3c2)cc1C(F)(F)F`, the IC50 was below 1000 nM.

`CC(=O)Nc1cn2cc(-c3cnc(N)cc3C(F)(F)F)ccc2n1` showed an IC50 below 10000 nM.

In the case of `Nc1ncc(-c2ccc3nc(NC(=O)[C@@H]4CCC(=O)O4)cn3c2)cc1C(F)(F)F`, the IC50 was below 1000 nM.

As for `Nc1ncc(-c2ccc3nc(NC(=O)[C@@H](O)CCC(=O)O)cn3c2)cc1C(F)(F)F`, the IC50 is below 1000 nM.

For `CC(=O)Nc1nc2ccc(-c3ccc(NC4CCOCC4)nc3)cc2s1`, the 50% inhibitory concentration (IC50) is below 1000 nM.

`Nc1ncc(-c2ccc3nc(NC(=O)N4CCC[C@H]4C(=O)O)cn3c2)cc1C(F)(F)F` gave a 50% inhibitory concentration (IC50) below 10000 nM.

`CC(=O)Nc1cn2cc(-c3cnc(N)c(Oc4ccc(N5CCN(C(C)C)CC5)cc4)n3)ccc2n1` returned an IC50 below 1000 nM.

In the case of `CC(=O)Nc1cn2cc(-c3cnc(N)nc3N)ccc2n1`, the 50% inhibitory concentration (IC50) is below 10000 nM.

Take `CCN(CC)CCCc1c(NC(C)=O)nc2ccc(-c3cnc(N)c(C(F)(F)F)c3)cn12`: the 50% inhibitory concentration (IC50) is below 10000 nM.

Regarding `CC(=O)Nc1cn2cc(-c3cnc(N)c(O[C@H](C)C(F)(F)F)n3)cc(F)c2n1`, the IC50 is below 1000 nM.

`Nc1ncc(-c2ccc3nc(NC(=O)N4CCCC4c4ccco4)cn3c2)cc1C(F)(F)F` (stereo not given) had an IC50 below 1000 nM.

The compound `CC(=O)Nc1cn2cc(-c3cnc(N)c(OC(F)F)c3)ccc2n1` gave an IC50 below 1000 nM.

`CC(=O)Nc1cn2nc(-c3cnc(N)c(-c4ccccc4Cl)c3)ccc2n1` came in with an IC50 below 1000 nM.

Compound `Nc1cccc(C(=O)Nc2nc3ccc(-c4cnc(N)c(C(F)(F)F)c4)cc3s2)n1` returned an IC50 below 10000 nM.

Compound `CC(=O)Nc1cn2cc(-c3cnc(N)c(Oc4cccc(F)c4)n3)cc(F)c2n1` registered an IC50 below 1000 nM.

Consider `CC(=O)Nc1nc2ccc(-c3ccc(N)nc3)cn2c1Br`, for which the IC50 is below 10000 nM.

Regarding `CC(=O)Nc1nc2ccc(-c3cnc(N)c(C(F)(F)F)c3)cn2c1C(C)=O`, the IC50 is below 10000 nM.

In turn, `Nc1ncc(-c2ccc3nc(NC(=O)c4ccccc4C(=O)O)cn3c2)cc1C(F)(F)F` returned a half-maximal inhibitory concentration (IC50) below 10000 nM.

On to `N#CN=C(N)NCCCC(=O)Nc1cn2nc(-c3cnc(N)c(C(F)(F)F)c3)ccc2n1`, for which the 50% inhibitory concentration (IC50) is below 1000 nM.

With `CC(=O)N1CCCC[C@@H]1C(=O)Nc1cn2cc(-c3cnc(N)c(C(F)(F)F)c3)ccc2n1`, the half-inhibitory concentration (IC50) was below 10000 nM.

In turn, `CC(=O)Nc1cn2cc(-c3cnc(N)c(C(F)(F)F)c3)cc(C)c2n1` returned an IC50 of at least 25000 nM.

In turn, `CC(=O)Nc1nc2ccc(-c3ccc(NC4CCNCC4)nc3)cc2s1` showed an IC50 below 1000 nM.

`CC(=O)Nc1cn2c(-c3cnc(N)c(C(F)(F)F)c3)c(-c3cnc(N)c(C(F)(F)F)c3)ccc2n1` returned a 50% inhibitory concentration (IC50) of at least 25000 nM.

Compound `CC(=O)Nc1cn2cc(-c3cnc(N)c(O[C@@H](C)C(F)(F)F)n3)cc(F)c2n1` showed an IC50 below 1000 nM.

As for `Nc1ncc(-c2ccc3nc(NC(=O)N4CCCC4Cc4ccccn4)cn3c2)cc1C(F)(F)F` (stereo not given), the half-maximal inhibitory concentration (IC50) was below 1000 nM.

Turning to `Nc1ncc(-c2ccc3nc(NC(=O)C4CCC(=O)NC4)cn3c2)cc1C(F)(F)F` (stereo not given), the half-maximal inhibitory concentration (IC50) is below 1000 nM.

In the case of `Nc1ncc(-c2ccc3nc(NC(=O)C4CCCC(=O)N4)cn3c2)cc1C(F)(F)F` (stereo not given), the IC50 was below 1000 nM.

Compound `Nc1ncc(-c2ccc3nc(NC(=O)N4CCCC4c4nccs4)cn3c2)cc1C(F)(F)F` (stereo not given) yielded an IC50 below 1000 nM.

`COc1ccccc1C1CCCN1C(=O)Nc1cn2cc(-c3cnc(N)c(C(F)(F)F)c3)ccc2n1` (stereo not given) came in with a half-maximal inhibitory concentration (IC50) below 1000 nM.

As to `Nc1ccc(-c2ccc3nc(NC(=O)OCCN4CCCCC4)sc3c2)cn1`, the IC50 is below 1000 nM.

Take `COc1ccc(C2CCCN2C(=O)Nc2cn3cc(-c4cnc(N)c(C(F)(F)F)c4)ccc3n2)cc1OC` (stereo not given): the IC50 was below 1000 nM.

`Nc1ncc(-c2ccc3nc(NC(=O)C4CCC(=O)N4)cn3c2)cc1C(F)(F)F` (stereo not given) had an IC50 below 1000 nM.

With `CC(=O)Nc1nc2ccc(-c3cnc(NC(C)=O)c(C(F)(F)F)c3)cc2s1`, the IC50 is below 1000 nM.

In the case of `CC(=O)Nc1cn2cc(-c3cnc(N)c(S(=O)(=O)N4CCC(Oc5ccc(F)cc5)CC4)c3)ccc2n1`, the concentration for half-maximal inhibition (IC50) is below 1000 nM.

Consider `Nc1ncc(-c2ccc3nc(NC(=O)c4cccc(-c5nn[nH]n5)c4)cn3c2)cc1C(F)(F)F`, for which the IC50 was below 1000 nM.
